Earlier results as cited in PMC10994248 (The Oncologist, 2024).

Test system: FGFR2 fusion or rearranged cholangiocarcinoma
Conditions: after failure of first-line chemotherapy ref 20-22; cited from earlier work

CCN1CCN(c2ccc(Nc3cc(N(C)C(=O)Nc4c(Cl)c(OC)cc(OC)c4Cl)ncn3)cc2)CC1 [infigratinib]
Objective response rate: 23%

CCN1C(=O)N(c2c(F)c(OC)cc(OC)c2F)Cc2cnc3[nH]c(CN4CCOCC4)cc3c21 [pemigatinib]
Objective response rate: 36%
